Here are results for 45 molecules from publication PMC12455397 (Angewandte Chemie (International Ed. in English), 2025).

Each structure is given as a SMILES string.

Assay [1] has as its target human Keap1 Kelch (Homo sapiens, UniProt Q14145). Kind of assay: Fluorescence polarization (FP) competition assay with Cy5-Nrf2 peptide probe. The conditions noted are these: for Ki: ≥3 individual measurements; for ligand efficiency (LE): from FP Ki; for fold improvement in binding affinity (FP) over parent analogue: 7 vs 4, 12 vs 7, 13 vs 12.
Method: Fluorescence Polarization Assay
(3 nM) and human Keap1 Kelch at 14 nM in the 1×HBSTET assay buffer, as previously.[1, 3-5] In short, the assay was performed in black flat-bottom 384-well plates (Corning Life Sciences, NY) allowing an assay volume of 30 μL/well. Proper mixing and elimination of air bubbles was ascertained by spinning down the plates and incubation for 10–15 minutes at RT before measuring FP levels on a Safire2 plate-reader (Tecan, Männedorf, Switzerland). The Ki values of the compounds were determined by dose-response experiments (12-points, 4% DMSO in all wells), where FP values were fitted to the equation Y = Bottom + (Top - Bottom)/[1 + (10HillSlope*(LogIC50-X))]; X representing the logarithmic value of compound concentration. The resulting IC50 value, together with the Kd value (the dissociation constant between probe and Keap1 Kelch, determined in a prior experiment) and Keap1 Kelch concentrations, was used to calculate the theoretical competitive inhibition constant, the Ki value.[18]
Assay [2] deals with Nrf2-regulated genes (AKR1B10, NQO1, TRXR1, HO-1) in HaCaT human keratinocytes. Kind of assay: HaCaT cell assay, Western Blotting of Nrf2-regulated proteins. It is filed as cell-based. To be noted: HaCaT, 10 µM, 24 h.
[3] abbreviates: FP (Ki/nM), Table S2, mean ± SEM, NA: not active (measured up to 4 mM).
[4] abbreviates: Ki (FP), mean, text and figures.

Sequence of human Keap1 Kelch (Q14145 321-609): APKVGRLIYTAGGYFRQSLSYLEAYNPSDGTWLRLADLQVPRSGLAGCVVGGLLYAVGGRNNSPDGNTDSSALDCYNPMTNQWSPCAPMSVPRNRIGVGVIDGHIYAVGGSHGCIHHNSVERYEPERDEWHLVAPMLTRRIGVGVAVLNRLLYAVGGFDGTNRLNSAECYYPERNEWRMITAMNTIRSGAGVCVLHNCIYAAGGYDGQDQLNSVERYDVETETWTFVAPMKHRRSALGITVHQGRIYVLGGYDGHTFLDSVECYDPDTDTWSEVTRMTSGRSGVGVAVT

Take `O=C(O)CCc1cccc(OCC(=O)NC2CCCCC2)c1` [Compound 2]: in assay [1], the “activity in FP competition assay” value is “inactive”.

One may read the Ki as a measure of affinity in units of concentration, obtained from inhibition or displacement. Lower therefore signals tighter binding. As for `O=C(COc1cccc(N2CCC(C(=O)O)CC2)c1)NC1CCCCC1` [Compound 3], the Ki in assay [1] (setting [3]) turned out to be 162000 ± 22000 nM; in assay [1] (Ki (FP), mean), 160000 nM. The “ligand efficiency (LE)” value in assay [1] is 0.20.

Take `O=C(O)CCc1ccc2ccc(OCC(=O)NC3CCCCC3)cc2c1` [Compound 4]: the inhibitory constant (Ki) worked out at 15500 ± 1300 nM in assay [1] (setting [3]) and 16000 nM in assay [1] (Ki (FP), mean). Besides, in assay [1], the “ligand efficiency (LE)” value turned out to be 0.25.

With `O=C(O)CCc1ccc2ccc(OCC(=O)NC3CCOCC3)cc2c1` [Compound 5], the Ki in assay [1] (setting [3]) was 38300 ± 2900 nM; in assay [1] (Ki (FP), mean), 38000 nM.

Turning to `O=C(O)CCc1ccc2ccc(OCC(=O)NN3CCOCC3)cc2c1` [Compound 6], the Ki was determined as 268000 ± 29000 nM in assay [1] (setting [3]) and 270000 nM in assay [1] (Ki (FP), mean).

Regarding `O=C(O)CCc1ccc2ccc(OCC(=O)NC3CCCCCC3)cc2c1` [Compound 7], in assay [1], the “fold improvement in binding affinity (FP) over parent analogue” value (shortened to “fold improvement … over parent analogue”) amounted to 2 fold and the “ligand efficiency (LE)” value turned out to be 0.26. This molecule came in with an inhibitory constant (Ki) in assay [1] (setting [3]) of 6560 ± 580 nM. This molecule yielded a Ki in assay [1] (Ki (FP), mean) of 6600 nM.

As for `O=C(O)CCc1ccc2ccc(OCC(=O)Nc3ccccc3)cc2c1` [Compound 8], the Ki in assay [1] (setting [3]) is 10200 ± 2400 nM; in assay [1] (Ki (FP), mean), 10000 nM.

Turning to `COc1ccc(NC(=O)COc2ccc3ccc(CCC(=O)O)cc3c2)cc1` [Compound 9], the inhibitory constant (Ki) worked out at 69600 ± 9400 nM in assay [1] (setting [3]) and 70000 nM in assay [1] (Ki (FP), mean).

`Cc1cc(C)c(NC(=O)COc2ccc3ccc(CCC(=O)O)cc3c2)c(C)c1` [Compound 10]: the Ki in assay [1] (setting [3]) stood at 21300 ± 710 nM; in assay [1] (Ki (FP), mean) it was 21000 nM.

On to `Cc1cc(C)c(C)c(NC(=O)COc2ccc3ccc(CCC(=O)O)cc3c2)c1C` [Compound 11], for which the Ki in assay [1] (setting [3]) was 196000 ± 24000 nM; in assay [1] (Ki (FP), mean), 200000 nM.

Take `O=C(O)CC(c1ccccc1)c1ccc2ccc(OCC(=O)NC3CCCCCC3)cc2c1` (stereo not drawn) [Compound 12]: in assay [1], the “fold improvement … over parent analogue” value came out at 6 fold and the “ligand efficiency (LE)” value came to 0.25. For the same molecule, the Ki in assay [1] (setting [3]) worked out at 1060 ± 99 nM. For the same molecule, in assay [1] (Ki (FP), mean), the Ki was 1100 nM.

For the molecule `COc1ccc(C(CC(=O)O)c2ccc3ccc(OCC(=O)NC4CCCCCC4)cc3c2)cc1` (stereo not drawn) [Compound 13], in assay [1], the “fold improvement … over parent analogue” value is 34 fold and the “ligand efficiency (LE)” value was determined as 0.29. For the same molecule, the affinity in assay [1] (setting [3]), expressed as Ki, was 31.6 ± 2.6 nM. The same molecule had an inhibitory constant (Ki) in assay [1] (setting [4]) of 32 nM.

In the case of `COc1cccc(C(CC(=O)O)c2ccc3ccc(OCC(=O)NC4CCCCCC4)cc3c2)c1` (stereo not drawn) [Compound 14], the Ki came to 284 ± 31 nM in assay [1] (setting [3]) and 280 nM in assay [1] (setting [4]).

Regarding `O=C(O)CC(c1ccc(Cl)cc1)c1ccc2ccc(OCC(=O)NC3CCCCCC3)cc2c1` (stereo not drawn) [Compound 15], the Ki was 294 ± 25 nM in assay [1] (setting [3]) and 290 nM in assay [1] (setting [4]).

Consider `O=C(O)CC(c1cccc(Cl)c1)c1ccc2ccc(OCC(=O)NC3CCCCCC3)cc2c1` (stereo not drawn) [Compound 16], for which the figures for the inhibitory constant (Ki) in assay [1] (setting [3]) and in assay [1] (setting [4]) were 53.9 ± 6.1 nM and 54 nM, respectively.

On to `COc1ccc(C(CC(=O)O)c2ccc3ccc(OCC(=O)NC4CCCCCC4)cc3c2)c(C)c1` (stereo not drawn) [Compound 17], for which the Ki in assay [1] (setting [3]) was 23.6 ± 2.2 nM; in assay [1] (setting [4]) it was 24 nM.

In the case of `Cc1c(Cl)cccc1C(CC(=O)O)c1ccc2ccc(OCC(=O)NC3CCCCCC3)cc2c1` (stereo not drawn) [Compound 18], the Ki amounted to 59.5 ± 8.4 nM in assay [1] (setting [3]) and 60 nM in assay [1] (setting [4]).

For the molecule `O=C(O)CC(c1ccc2c(c1)OCO2)c1ccc2ccc(OCC(=O)NC3CCCCCC3)cc2c1` (stereo not drawn) [Compound 19], the figures for the Ki in assay [1] (setting [3]) and in assay [1] (setting [4]) were 23.2 ± 1.3 nM and 23 nM, respectively. Besides, the “ligand efficiency (LE)” value in assay [1] is listed as 0.29.

For `O=C(O)CC(c1ccc2c(c1)CCO2)c1ccc2ccc(OCC(=O)NC3CCCCCC3)cc2c1` (stereo not drawn) [Compound 20], the values for the inhibitory constant (Ki) in assay [1] (setting [3]) and in assay [1] (setting [4]) were 35.5 ± 3.4 nM and 36 nM, respectively.

Take `O=C(O)CC(c1ccc2ccc(OCC(=O)NC3CCCCCC3)cc2c1)c1ccc2occc2c1` (stereo not drawn) [Compound 21]: the Ki turned out to be 38.3 ± 1.6 nM in assay [1] (setting [3]) and 38 nM in assay [1] (setting [4]).

For the molecule `O=C(O)CC(c1ccc2c(c1)OC(F)(F)O2)c1ccc2ccc(OCC(=O)NC3CCCCCC3)cc2c1` (stereo not drawn) [Compound 22], the results for the Ki in assay [1] (setting [3]) and in assay [1] (setting [4]) were 33.8 ± 4.7 nM and 34 nM, respectively.

In assay [1] (setting [4]), `O=C(O)CC(c1ccc2c(c1)OCCO2)c1ccc2ccc(OCC(=O)NC3CCCCCC3)cc2c1` (stereo not drawn) [Compound 23] had a Ki of 15 nM.

Take `Cc1cc2c(cc1C(CC(=O)O)c1ccc3ccc(OCC(=O)NC4CCCCCC4)cc3c1)CCO2` (stereo not drawn) [Compound 25]: the “protein levels of Nrf2-regulated genes by WB” value (shortened to “protein levels”) in assay [2] is reported as “strong bands in WB for all tested proteins”. For the same molecule, the Ki worked out at 18.8 ± 1.7 nM in assay [1] (setting [3]) and 19 nM in assay [1] (setting [4]).

As for `Cc1cc2occc2cc1C(CC(=O)O)c1ccc2ccc(OCC(=O)NC3CCCCCC3)cc2c1` (stereo not drawn) [Compound 26], the Ki in assay [1] (setting [3]) worked out at 15.6 ± 2.6 nM; in assay [1] (setting [4]), 16 nM.

Consider `Cc1cc2c(cc1C(CC(=O)O)c1ccc3ccc(OCC(=O)NC4CCCCCC4)cc3c1)OC(F)(F)O2` (stereo not drawn) [Compound 27], for which the results for the Ki in assay [1] (setting [3]) and in assay [1] (setting [4]) were 14.1 ± 2.4 nM and 14 nM, respectively.

Turning to `O=C(O)CC(c1ccc2c(c1)OCO2)c1ccc2ccc(OCC(=O)NC3CCCCC3)cc2c1` (stereo not drawn) [Compound 29], the Ki in assay [1] (setting [3]) is 57.1 ± 4.8 nM; in assay [1] (setting [4]) it was 57 nM.

For the molecule `O=C(O)CC(c1ccc2c(c1)CCO2)c1ccc2ccc(OCC(=O)NC3CCCCC3)cc2c1` (stereo not drawn) [Compound 30], the Ki in assay [1] (setting [3]) amounted to 82.1 ± 7.9 nM; in assay [1] (setting [4]), 82 nM.

As for `O=C(O)CC(c1ccc2ccc(OCC(=O)NC3CCCCC3)cc2c1)c1ccc2occc2c1` (stereo not drawn) [Compound 31], the Ki in assay [1] (setting [3]) came out at 68.2 ± 12 nM; in assay [1] (setting [4]), 68 nM.

Consider `O=C(O)CC(c1ccc2c(c1)OC(F)(F)O2)c1ccc2ccc(OCC(=O)NC3CCCCC3)cc2c1` (stereo not drawn) [Compound 32], for which the results for the Ki in assay [1] (setting [3]) and in assay [1] (setting [4]) were 51.4 ± 4.8 nM and 51 nM, respectively.

For `O=C(O)CC(c1ccc2c(c1)OCCO2)c1ccc2ccc(OCC(=O)NC3CCCCC3)cc2c1` (stereo not drawn) [Compound 33], the Ki was 29.3 ± 1.7 nM in assay [1] (setting [3]) and 29 nM in assay [1] (setting [4]).

With `Cc1cc2c(cc1C(CC(=O)O)c1ccc3ccc(OCC(=O)NC4CCCCC4)cc3c1)OCO2` (stereo not drawn) [Compound 34], the values for the inhibition constant Ki in assay [1] (setting [3]) and in assay [1] (setting [4]) were 18.1 ± 5.9 nM and 18 nM, respectively.

For `Cc1cc2c(cc1C(CC(=O)O)c1ccc3ccc(OCC(=O)NC4CCCCC4)cc3c1)CCO2` (stereo not drawn) [Compound 35], the results for the Ki in assay [1] (setting [3]) and in assay [1] (setting [4]) were 32.4 ± 1.3 nM and 32 nM, respectively.

Take `Cc1cc2occc2cc1C(CC(=O)O)c1ccc2ccc(OCC(=O)NC3CCCCC3)cc2c1` (stereo not drawn) [Compound 36]: the Ki was 24.4 ± 0.4 nM in assay [1] (setting [3]) and 24 nM in assay [1] (setting [4]).

In turn, `Cc1cc2c(cc1C(CC(=O)O)c1ccc3ccc(OCC(=O)NC4CCCCC4)cc3c1)OC(F)(F)O2` (stereo not drawn) [Compound 37] gave a Ki in assay [1] (setting [4]) of 7.1 nM.

Take `Cc1cc2c(cc1C(CC(=O)O)c1ccc3ccc(OCC(=O)NC4CCCCC4)cc3c1)OCCO2` (stereo not drawn) [Compound 38]: the results for the Ki in assay [1] (setting [3]) and in assay [1] (setting [4]) were 14.9 ± 0.8 nM and 15 nM, respectively.

With `O=C(O)CC(c1ccc2c(c1)OCO2)c1ccc2ccc(OCC(=O)NC3C=CCCC3)cc2c1` (stereo not drawn) [Compound 39], the inhibition constant Ki is 24.5 ± 1.7 nM in assay [1] (setting [3]) and 25 nM in assay [1] (setting [4]).

In the case of `O=C(O)CC(c1ccc2c(c1)CCO2)c1ccc2ccc(OCC(=O)NC3C=CCCC3)cc2c1` (stereo not drawn) [Compound 40], the “protein levels” value in assay [2] was “strong bands in WB for all tested proteins”. In addition, the Ki in assay [1] (setting [3]) is 26.7 ± 4.2 nM; in assay [1] (setting [4]), 27 nM.

Consider `O=C(O)CC(c1ccc2ccc(OCC(=O)NC3C=CCCC3)cc2c1)c1ccc2occc2c1` (stereo not drawn) [Compound 41], for which the Ki worked out at 21.1 ± 1.5 nM in assay [1] (setting [3]) and 21 nM in assay [1] (setting [4]).

As to `O=C(O)CC(c1ccc2c(c1)OC(F)(F)O2)c1ccc2ccc(OCC(=O)NC3C=CCCC3)cc2c1` (stereo not drawn) [Compound 42], the figures for the Ki in assay [1] (setting [3]) and in assay [1] (setting [4]) were 29.9 ± 2.2 nM and 30 nM, respectively.

On to `O=C(O)CC(c1ccc2c(c1)OCCO2)c1ccc2ccc(OCC(=O)NC3C=CCCC3)cc2c1` (stereo not drawn) [Compound 43], for which the Ki turned out to be 20.3 ± 2.1 nM in assay [1] (setting [3]) and 20 nM in assay [1] (setting [4]).

For `Cc1cc2c(cc1C(CC(=O)O)c1ccc3ccc(OCC(=O)NC4C=CCCC4)cc3c1)OCO2` (stereo not drawn) [Compound 44], the “protein levels” value in assay [2] is “strong bands in WB for all tested proteins”. In assay [1] (setting [4]), this molecule returned a Ki of 3.9 nM.

Consider `Cc1cc2c(cc1C(CC(=O)O)c1ccc3ccc(OCC(=O)NC4C=CCCC4)cc3c1)CCO2` (stereo not drawn) [Compound 45], for which the Ki in assay [1] (setting [3]) came to 18.3 ± 2.4 nM; in assay [1] (setting [4]) it was 18 nM.

Turning to `Cc1cc2occc2cc1C(CC(=O)O)c1ccc2ccc(OCC(=O)NC3C=CCCC3)cc2c1` (stereo not drawn) [Compound 46], the Ki in assay [1] (setting [3]) came out at 17.8 ± 3.4 nM; in assay [1] (setting [4]), 18 nM.

Turning to `Cc1cc2c(cc1C(CC(=O)O)c1ccc3ccc(OCC(=O)NC4C=CCCC4)cc3c1)OC(F)(F)O2` (stereo not drawn) [Compound 47], the Ki is 16.1 ± 3.8 nM in assay [1] (setting [3]) and 16 nM in assay [1] (setting [4]).

For the molecule `Cc1cc2c(cc1C(CC(=O)O)c1ccc3ccc(OCC(=O)NC4C=CCCC4)cc3c1)OCCO2` (stereo not drawn) [Compound 48], the “protein levels” value in assay [2] is given as “strong bands in WB for all tested proteins”. The results for the Ki in assay [1] (setting [3]) and in assay [1] (setting [4]) were 19.2 ± 2.4 nM and 19 nM, respectively.
